Laboratory results published in the supplement of paper PMC3937590.

What was measured:
Assay in all cases: -log10 GI50 (growth inhibition 50%) (-log10(M)); higher = more potent growth inhibition
HCC1937 = tested on: HCC1937
Procedure, shortened: (§1)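 The reported figure is the negative logarithm of GI50, defined as the molar concentration that produces the set level of growth inhibition. The logarithm is base 10. It comes from a Gompertz curve fitted by nonlinear least squares to 72-hour luminescence data from breast cancer cell lines given nine doses in 1:5 serial dilution, in triplicate, with a time-zero plate as reference. A < qualifier marks values equal to the top dose.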

T47D = tested on: T47D
Procedure, shortened: as §1

CAMA1 = tested on: CAMA1
Procedure, shortened: as §1

SUM1315MO2 = tested on: SUM1315MO2
Procedure, shortened: as §1

600MPE = tested on: 600MPE
Procedure, shortened: as §1

AU565 = tested on: AU565
Procedure, shortened: as §1

HCC2185 = tested on: HCC2185
Procedure, shortened: as §1

ZR751 = tested on: ZR751
Procedure, shortened: as §1

HCC1143 = tested on: HCC1143
Procedure, shortened: as §1

SUM185PE = tested on: SUM185PE
Procedure, shortened: as §1

MDAMB361 = tested on: MDAMB361
Procedure, shortened: as §1

ZR75B = tested on: ZR75B
Procedure, shortened: as §1

LY2 = tested on: LY2
Procedure, shortened: as §1

MDAMB175VII = tested on: MDAMB175VII
Procedure, shortened: as §1

HCC1428 = tested on: HCC1428
Procedure, shortened: as §1

SUM159PT = tested on: SUM159PT
Procedure, shortened: as §1

HCC1569 = tested on: HCC1569
Procedure, shortened: as §1

SUM52PE = tested on: SUM52PE
Procedure, shortened: as §1

SKBR3 = tested on: SKBR3
Procedure, shortened: as §1

Structure (SMILES) | -log10 GI50 (HCC1937) | -log10 GI50 (T47D) | -log10 GI50 (HCC2185) | -log10 GI50 (HCC1143) | -log10 GI50 (MDAMB361) | -log10 GI50 (MDAMB175VII) | -log10 GI50 (HCC1428) | -log10 GI50 (HCC1569) | -log10 GI50 (SKBR3) | -log10 GI50 (CAMA1) | -log10 GI50 (SUM1315MO2) | -log10 GI50 (600MPE) | -log10 GI50 (AU565) | -log10 GI50 (ZR751) | -log10 GI50 (SUM185PE) | -log10 GI50 (ZR75B) | -log10 GI50 (LY2) | -log10 GI50 (SUM159PT) | -log10 GI50 (SUM52PE)
CC(=O)Nc1cccc(-n2c(=O)n(C3CC3)c(=O)c3c(Nc4ccc(I)cc4F)n(C)c(=O)c(C)c32)c1 | < 4.78 | < 4.78 | < 4.78 | < 4.78 | < 4.78 | 7.88 | < 4.78 | < 4.78 | < 4.78 | < 4.78 | 7.19 | 8.17 | 5.01 | < 4.78 | 4.9 | < 4.78 | < 4.78 | 7.93 | 6.92
CC(C)Oc1ccc(C(=O)N[C@H](CNC(=O)CN(C)C)Cc2ccc(-c3cn4cccc([C@H](C)O)c4n3)cc2)cc1Cl | 7.36 | 7.29 | 7.41 | 6.98 | 7.43 | 6.76 | 5.99 | 6.59 | 7.34 | 7.33 | 7.46 | < 4.48 | 7.62 | 7.09 | 5.43 | 7.18 | – | 7.43 | 7.65
CCNCCCNC/C=C\CNCCCNCC | 5.24 | 5.67 | 3.39 | 4.05 | 3.15 | 3.21 | 3.74 | 3.71 | 3.51 | 2.91 | 2.95 | 3.68 | 3.33 | 3.29 | < 3.3 | 3.61 | 2.9 | 4.03 | 5.45
CCn1cc(-c2ccnc3[nH]c(-c4cccc(CN(C)C)c4)cc23)c(-c2ccc(NC(=O)N(C)C)cc2)n1 | 5.73 | 5.36 | 6.3 | 5.52 | 5.22 | 5.07 | 5.69 | 6.17 | 5.29 | 5.05 | 5.9 | 5.1 | 5.52 | 5.08 | 5.95 | 5.85 | 5.03 | 5.77 | 6.86
CC(=O)O[C@@]12CO[C@@H]1C[C@H](O)[C@@]1(C)C(=O)[C@H](O)C3=C(C)[C@@H](OC(=O)[C@H](O)[C@@H](NC(=O)OC(C)(C)C)c4ccccc4)C[C@@](O)([C@@H](OC(=O)c4ccccc4)[C@H]21)C3(C)C [Docetaxel] | – | 8.51 | 8.52 | 8.06 | 7.92 | 7.8 | 7.77 | 8.12 | 8 | – | 8.71 | 7.61 | 8.3 | 7.74 | 6.4 | 8.03 | 8.2 | 8.77 | 8.67
O=c1[nH]cc(F)c(=O)[nH]1 [Fluorouracil] | 3.66 | – | 3.42 | 3.76 | 3.98 | 3.96 | 4.99 | 3.96 | 4.48 | 3.51 | 3.37 | 4.11 | 4.69 | 4.52 | 2.53 | 4.95 | 4.43 | 4.68 | 4.65
COc1cc2ncnc(Nc3ccc(F)c(Cl)c3)c2cc1OCCCN1CCOCC1 [Gefitinib] | 5.08 | 4.8 | 4.53 | 4.93 | 5.03 | 6.55 | 4.97 | 5.19 | 5.56 | – | 5.83 | 5.21 | 5.97 | < 4.48 | 5.11 | 4.67 | 4.62 | 5.07 | 5.1

Second part, led by results:

-log10 GI50 (HCC1937) | -log10 GI50 (T47D) | -log10 GI50 (HCC2185) | -log10 GI50 (HCC1143) | -log10 GI50 (MDAMB361) | -log10 GI50 (MDAMB175VII) | -log10 GI50 (HCC1428) | -log10 GI50 (HCC1569) | -log10 GI50 (SKBR3) | Structure (SMILES) | -log10 GI50 (CAMA1) | -log10 GI50 (SUM1315MO2) | -log10 GI50 (600MPE) | -log10 GI50 (AU565) | -log10 GI50 (ZR751) | -log10 GI50 (SUM185PE) | -log10 GI50 (ZR75B) | -log10 GI50 (LY2) | -log10 GI50 (SUM159PT) | -log10 GI50 (SUM52PE)
5.97 | 6.02 | 7.61 | 7.92 | – | 8.12 | 3.58 | 6.76 | 7.97 | Nc1ccn([C@@H]2O[C@H](CO)[C@@H](O)C2(F)F)c(=O)n1 [Gemcitabine] | 6.79 | 6.91 | 7.64 | 7.81 | 7.45 | 6.44 | 7.34 | 7.62 | 7.99 | –
5.1 | 5.55 | 5.54 | 4.7 | 5.46 | 5.44 | 5.09 | 5.35 | 5.7 | O=C(O)C(=O)O.[NH-][C@@H]1CCCC[C@H]1[NH-].[Pt+2] [Oxaliplatin] | – | 4.86 | – | – | 5.61 | 4.39 | 5.52 | 5.45 | 5.6 | 5.46
3.76 | 4.59 | 4.83 | 4.23 | 4.22 | 4.46 | 4.34 | 4.27 | 4.35 | CNC(=O)c1cc(Oc2ccc(NC(=O)Nc3ccc(Cl)c(C(F)(F)F)c3)cc2)ccn1 [Sorafenib] | 4.22 | 4.55 | 4.36 | 3.94 | 4.43 | 5.83 | 3.16 | – | 4.66 | 5.77
< 3.78 | < 3.78 | 4.21 | 4.28 | < 3.78 | < 3.78 | 5.49 | < 3.78 | 4.37 | CC/C(=C(\c1ccccc1)c1ccc(OCCN(C)C)cc1)c1ccccc1 [Tamoxifen] | 4.46 | 4.46 | 4.35 | 4.05 | < 3.78 | 5.05 | – | 4.25 | 3.93 | 4.28
– | – | 7.39 | 6.58 | 6.03 | 5.95 | 6.35 | 5.8 | 7.95 | CC[C@@]1(O)C(=O)OCc2c1cc1n(c2=O)Cc2cc3c(CN(C)C)c(O)ccc3nc2-1 [Topotecan] | 6.4 | 8.08 | – | 7.73 | 7.16 | 7.2 | 7.26 | 6.59 | 6.65 | 8.08
